39 compounds from ChEMBL document CHEMBL6115041, “Discovery of AIC263282, a Hepatitis B Virus Capsid Assembly Modulator Ready for Candidate Profiling” (J Med Chem, 2025) can be followed below.

Data set [1] has as its target Voltage-gated inwardly rectifying potassium channel KCNH2 (Homo sapiens, UniProt Q12809). Put plainly: Inhibition of human ERG by patch clamp assay. The data set is classed as toxicity.
The subject of a further data set is hERG. Nature of the data set: Selectivity ratio of IC50 for human ERG to EC50 for Antiviral activity against HBV infected in human HePAD38 cells. As to conditions: HePAD38 cells infected with HBV (for the EC50), read-out: Ratio IC50/EC50. The data set is classed as toxicity, cell-based.
In another data set the test system is Hepatitis B virus. Nature of the data set: Antiviral activity against HBV infected in human HePAD38 cells measured after 6 days by qPCR analysis. The settings on record: HePAD38, 144 h. The data set is classed as functional, organism-based.
A short description of data set [2]: Kinetic solubility of compound. The data set is classed as physicochemical.
Data set [3] is described as follows: Cytotoxicity against human HePAD38 cells measured after 6 days by prestoblue reagent based analysis. The settings on record: time 6 day. The data set is classed as toxicity, cell-based.
Data set [4] is described as follows: Metabolic stability in mouse liver microsome assessed as liver blood flow by HPLC analysis relative to control. The data set is classed as ADME. The settings on record: microsomes.

The structures appear in SMILES notation. Converted amounts (≈) assume the structure as drawn. Where only a bound is given, the exact number is not on record here.

Voltage-gated inwardly rectifying potassium channel KCNH2, sequence (Q12809 whole entry): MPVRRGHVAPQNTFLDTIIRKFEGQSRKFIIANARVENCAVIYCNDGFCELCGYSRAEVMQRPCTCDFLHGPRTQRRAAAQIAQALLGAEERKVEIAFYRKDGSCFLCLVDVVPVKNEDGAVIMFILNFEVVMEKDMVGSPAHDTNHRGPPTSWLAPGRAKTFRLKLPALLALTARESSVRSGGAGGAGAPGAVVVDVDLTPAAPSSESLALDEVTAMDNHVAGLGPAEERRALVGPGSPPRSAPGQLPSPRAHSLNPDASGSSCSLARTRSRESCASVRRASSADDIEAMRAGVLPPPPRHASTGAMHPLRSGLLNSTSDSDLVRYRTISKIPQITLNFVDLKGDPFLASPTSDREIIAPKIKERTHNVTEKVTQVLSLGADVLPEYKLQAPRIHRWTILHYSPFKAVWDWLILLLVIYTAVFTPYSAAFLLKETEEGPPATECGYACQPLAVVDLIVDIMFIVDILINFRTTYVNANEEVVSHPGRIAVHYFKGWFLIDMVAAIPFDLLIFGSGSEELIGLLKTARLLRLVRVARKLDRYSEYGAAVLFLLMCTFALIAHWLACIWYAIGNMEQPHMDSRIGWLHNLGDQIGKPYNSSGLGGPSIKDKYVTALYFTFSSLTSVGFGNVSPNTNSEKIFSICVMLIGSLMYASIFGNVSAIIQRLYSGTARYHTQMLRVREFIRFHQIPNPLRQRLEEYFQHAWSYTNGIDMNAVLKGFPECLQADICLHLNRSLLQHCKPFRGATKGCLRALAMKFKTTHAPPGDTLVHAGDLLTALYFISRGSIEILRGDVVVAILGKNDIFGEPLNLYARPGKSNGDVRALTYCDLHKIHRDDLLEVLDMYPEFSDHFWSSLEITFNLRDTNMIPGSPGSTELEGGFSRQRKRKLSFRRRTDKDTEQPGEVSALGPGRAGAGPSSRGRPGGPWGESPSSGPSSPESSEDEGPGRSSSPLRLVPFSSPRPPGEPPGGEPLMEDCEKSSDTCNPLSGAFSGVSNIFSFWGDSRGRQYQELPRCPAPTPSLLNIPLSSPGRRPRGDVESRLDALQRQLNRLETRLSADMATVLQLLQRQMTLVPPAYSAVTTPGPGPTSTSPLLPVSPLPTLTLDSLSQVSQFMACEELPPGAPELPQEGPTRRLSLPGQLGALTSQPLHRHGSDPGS

On to `C[C@@H]1CN(C(=O)C(=O)NC2(C(F)(F)F)COC2)CCN1C(=O)c1cc2cc(F)c(F)cc2[nH]1`, for which, in data set [1], the IC50 came out at 9.8 µM. In addition, the selectivity ratio with hERG stood at 653.
In turn, `CCc1cc(F)cc2[nH]c(C(=O)N3CCN(C(=O)C(=O)NC4(c5cnn(C)c5)COC4)C[C@H]3C)cc12` gave a half-maximal effective concentration (EC50) in the data set on Hepatitis B virus of 2.4 nM.
Still for that read-out and setting: next, `C[C@H]1CN(C(=O)C(=O)NC2(C)CCOCC2)CCN1C(=O)c1cc2cc(F)c(F)cc2[nH]1`: 60 nM.
Consider `O=C(NC1(c2ccccn2)CCC1)C(=O)N1CCN(C(=O)c2cc3cc(F)c(F)cc3[nH]2)CC1`, for which the solubility kinetic in data set [2] (read-out: Kinetic_solubility) was 79 µM (≈ 36.9 µg/mL). The same compound gave a concentration giving a half-maximal response (EC50) in the data set on Hepatitis B virus of 24 nM. In addition, in data set [3], the 50% cytotoxic concentration (CC50) at 144 h was more than 10 µM. In data set [4], the LBF stood at 43%.
On to `C[C@@H](NC(=O)C(=O)N1CCN(C(=O)/C=C/c2c(N)cc(F)cc2F)CC1)C(F)(F)F`, for which the response in the data set on Hepatitis B virus was half-maximal at 53 nM (EC50).
`CCc1cc(F)cc2[nH]c(C(=O)N3CCN(C(=O)C(=O)NC4(c5cnc(OC)cn5)COC4)C[C@H]3C)cc12`: in the data set with Hepatitis B virus, the EC50 stood at 2.5 nM.
As for `Cc1noc(C2(NC(=O)C(=O)N3CCN(C(=O)c4cc5c(Cl)c(F)ccc5[nH]4)CC3)CC(F)(F)C2)n1`, in data set [2], the Kinetic_solubility entry is recorded as “Not_determined(Insoluble)”. The same compound displayed an EC50 with Hepatitis B virus of 18 nM. For the same compound, the LBF in data set [4] turned out to be 44%.
Take `Cc1cc(F)cc2[nH]c(C(=O)N3CCN(C(=O)C(=O)NC4(C(F)(F)F)CCOCC4)CC3)cc12`: the Kinetic_solubility entry in data set [2] is listed as “Not_determined(Insoluble)”. This compound also had an EC50 in the data set on Hepatitis B virus of 12 nM.
On the same counts, the results for `Cc1noc(C2(NC(=O)C(=O)N3CCN(C(=O)c4cc5c(F)c(F)ccc5[nH]4)CC3)CC(F)(F)C2)n1` are “Not_determined(Insoluble)” and 23 nM.
For `CCc1cc(F)cc2[nH]c(C(=O)N3CCN(C(=O)C(=O)NC4(c5nc(C)no5)COC4)C[C@H]3C)cc12`, the EC50 with Hepatitis B virus was 2.9 nM.
`O=C(NC1(c2c[nH]nn2)CC(F)(F)C1)C(=O)N1CCN(C(=O)c2cc3cc(F)c(F)cc3[nH]2)CC1`: the response with Hepatitis B virus was half-maximal at 54 nM (EC50).
In the data set with Hepatitis B virus, `C[C@@H]1CN(C(=O)C(=O)NC2(C)CCOCC2)CCN1C(=O)c1cc2cc(F)c(F)cc2[nH]1` gave an EC50 of 7.5 nM.
Take `Cc1noc(C2(NC(=O)C(=O)N3CCN(C(=O)c4cc5ccc(Cl)cc5[nH]4)CC3)CC(F)(F)C2)n1`: in data set [2], the Kinetic_solubility result is on record as “Not_determined(Insoluble)”. For the same compound, the concentration for a half-maximal effect (EC50) in the data set with Hepatitis B virus was determined as 92 nM.
For `O=C(NC1(C(F)(F)F)CCOCC1)C(=O)N1CCN(C(=O)c2cc3c(Cl)cc(F)cc3[nH]2)CC1` the same measures were “Not_determined(Insoluble)” and 14 nM.
For `Cc1noc(C2(NC(=O)C(=O)N3CCN(C(=O)c4cc5c(F)c(F)c(F)cc5[nH]4)CC3)CC(F)(F)C2)n1` the same measures were “Not_determined(Insoluble)” and 28 nM.
In the case of `CC1(NC(=O)C(=O)N2CCN(C(=O)c3cc4cc(F)c(F)cc4[nH]3)CC2)CS(=O)(=O)C1`, the Kinetic_solubility entry in data set [2] is “Not_determined(Insoluble)”. Besides, the EC50 with Hepatitis B virus is 240 nM. In data set [3], this compound returned a CC50 at 144 h of more than 10 µM.
In turn, `CCc1cc(F)cc2[nH]c(C(=O)N3CCN(C(=O)C(=O)NC4(c5ncccn5)COC4)C[C@H]3C)cc12` gave an EC50 in the data set with Hepatitis B virus of 7 nM.
For `O=C(NC1(C(F)(F)F)CC1)C(=O)N1CCN(C(=O)c2cc3cc(F)c(F)cc3[nH]2)CC1`, the Kinetic_solubility result in data set [2] is on record as “Not_determined(Insoluble)”. The compound also came in with an EC50 with Hepatitis B virus of 26 nM. The CC50 at 144 h in data set [3] was more than 10 µM.
`Cc1noc(C2(NC(=O)C(=O)N3CCN(C(=O)c4cc5ccccc5[nH]4)CC3)CC(F)(F)C2)n1`: the Kinetic_solubility entry in data set [2] is given as “Not_determined(Insoluble)”. The compound further displayed a concentration giving a half-maximal response (EC50) with Hepatitis B virus of 140 nM.
In turn, `O=C(NC1(c2cccnc2)CCC1)C(=O)N1CCN(C(=O)c2cc3cc(F)c(F)cc3[nH]2)CC1` registered a 50% effective concentration (EC50) in the data set on Hepatitis B virus of 7.5 nM.
Consider `CCc1cc(F)cc2[nH]c(C(=O)N3CCN(C(=O)C(=O)NC4(C(F)(F)F)COC4)CC3)cc12`, for which a half-maximal response in the data set with Hepatitis B virus (EC50) required 6.2 nM.
Same read-out and setting: next, `C[C@@H](NC(=O)C(=O)N1CCN(C(=O)c2cc3cc(F)c(F)cc3[nH]2)CC1)C(F)(F)F`: 127 nM.
With `Cc1noc(C2(NC(=O)C(=O)N3CCN(C(=O)c4cc5cc(F)c(Cl)cc5[nH]4)CC3)CC(F)(F)C2)n1`, the Kinetic_solubility result in data set [2] is on record as “Not_determined(Insoluble)”. In the data set on Hepatitis B virus, this compound registered an EC50 of 28 nM.
In the data set with Hepatitis B virus, `Cc1noc(C2(NC(=O)C(=O)N3CCN(C(=O)c4cc5cc(F)c(F)cc5[nH]4)CC3)CC(F)(F)C2)n1` came in with an EC50 of 13 nM.
In the data set with Hepatitis B virus, `CCc1cc(F)cc2[nH]c(C(=O)N3CCN(C(=O)C(=O)NC4(C)COC4)C[C@H]3C)cc12` came in with an EC50 of 3.8 nM.
Regarding `CCc1cc(F)cc2[nH]c(C(=O)N3CCN(C(=O)C(=O)NC4(C(F)(F)F)CCOCC4)C[C@H]3C)cc12`, the 50% effective concentration (EC50) in the data set with Hepatitis B virus was determined as 2.2 nM.
The compound `O=C(NC1(C(F)(F)F)CCOCC1)C(=O)N1CCN(C(=O)c2cc3cc(F)c(F)cc3[nH]2)CC1` displayed an EC50 with Hepatitis B virus of 18 nM.
The same measure, in the same setting: next, `CC1(NC(=O)C(=O)N2CCN(C(=O)c3cc4cc(F)c(F)cc4[nH]3)CC2)CCC1`: 34 nM; `CCc1cc(F)cc2[nH]c(C(=O)N3CCN(C(=O)C(=O)NC4(c5ccncc5F)COC4)C[C@H]3C)cc12`: 2.4 nM.
As to `CN(C)C(=O)C1(NC(=O)C(=O)N2CCN(C(=O)c3cc4cc(F)c(F)cc4[nH]3)CC2)CC(F)(F)C1`, the Kinetic_solubility entry in data set [2] is recorded as “Not_determined(Insoluble)”. Besides, in the data set with Hepatitis B virus, the EC50 amounted to 160 nM. This compound came in with a CC50 at 144 h in data set [3] of more than 32 µM.
`CCc1cc(F)cc2[nH]c(C(=O)N3CCN(C(=O)C(=O)NC4(c5nc(C)no5)CC(F)(F)C4)CC3)cc12` displayed an EC50 with Hepatitis B virus of 10 nM.
In the data set on Hepatitis B virus, `CCc1cc(F)cc2[nH]c(C(=O)N3CCN(C(=O)C(=O)NC4(C)COC4)CC3)cc12` had an EC50 of 19 nM.
`CCc1cc(F)cc2[nH]c(C(=O)N3CCN(C(=O)C(=O)NC4(C(F)(F)F)CCOCC4)CC3)cc12`: the Kinetic_solubility entry in data set [2] is listed as “Not_determined(Insoluble)”. In the data set with Hepatitis B virus, this compound displayed an EC50 of 2.4 nM. Besides, the LBF in data set [4] turned out to be 56%.
For the compound `CCc1cc(F)cc2[nH]c(C(=O)N3CCN(C(=O)C(=O)NC4(c5ccc(C)nc5)COC4)C[C@H]3C)cc12`, in data set [2], the Kinetic_solubility entry is reported as “Not_determined(Insoluble)”. The compound further registered an EC50 in the data set with Hepatitis B virus of 1.3 nM. The LBF in data set [4] was determined as 93%.
With `CC1(NC(=O)C(=O)N2CCN(C(=O)c3cc4cc(F)c(F)cc4[nH]3)CC2)CCOCC1`, the response with Hepatitis B virus was half-maximal at 30 nM (EC50).
The same measure, in the same setting: as for `O=C(NC1(c2ccncc2)CCC1)C(=O)N1CCN(C(=O)c2cc3cc(F)c(F)cc3[nH]2)CC1`, the figure is 0.79 nM; as for `CC1(NC(=O)C(=O)N2CCN(C(=O)c3cc4cc(F)c(F)cc4[nH]3)CC2)COC1`, 52 nM.
The compound `CC1(NC(=O)C(=O)N2CCN(C(=O)c3cc4cc(F)c(F)cc4[nH]3)CC2)CC(F)(F)C1` yielded an EC50 in the data set on Hepatitis B virus of 9.8 nM.
With `Cc1noc(C2(NC(=O)C(=O)N3CCN(C(=O)c4cc5c(Cl)cccc5[nH]4)CC3)CC(F)(F)C2)n1`, the Kinetic_solubility result in data set [2] is reported as “Not_determined(Insoluble)”. For the same compound, the 50% effective concentration (EC50) with Hepatitis B virus was determined as 51 nM.
